In patent publication US20100075965A1, “PI3 KINASE INHIBITORS AND METHODS OF THEIR USE” (Novartis AG, priority 2006, published 2010) one finds IC50 and EC50 data, which are given here for 23 molecules.

The target of one assay is PI3 K Alpha (Homo sapiens, UniProt P42336). Description: PI3 kinase phosphorylation assays (homogenous solution phase, one step solid phase, ATP depletion/KinaseGlo). It is filed as biochemical.
The subject of assay [1] is pSer473-Akt in A2780 cells. Briefly: pSer473 Akt assay to monitor PI3K pathway in A2780 cells (MSD). It is filed as cell-based. The following applies: Homo sapiens. The method, then:
In this method, an assay for measuring the PI3K-mediated pSer^473-Akt status after treatment with representative inhibitor compounds of the preferred embodiments is described.
A2780 cells were cultured in DMEM supplemented with 10% FBS, L-glutamine, sodium pyruvate, and antibiotics. Cells were plated in the same medium at a density of 15,000 cells per well into 96 well tissue culture plates, with outside wells vacant, and allowed to adhere overnight.
Test compounds supplied in DMSO were diluted further into DMSO at 500 times the desired final concentrations before dilution into culture media to 2 times the final concentrations. Equal volumes of 2× compounds in media were added to the cells in 96 well plates and incubated at 37° C. for one hour. The media and compounds were then removed, the plates chilled and cells lysed in a lysis buffer (150 mM NaCl, 20 mM Tris pH 7.5, 1 mM EDTA, 1 mM EGTA, 1% Triton X-100) supplemented with phosphatase and protease inhibitors. After thorough mixing, lysates were transferred to both pSer473Akt and total Akt assay plates from Meso Scale Discovery (MSD), and incubated overnight with shaking at 4° C. The plates were washed with 1×MSD wash buffer and the captured analytes detected with secondary antibodies. After incubation with the secondary antibody at room temperature for 1-2 hours, the plates were washed again and 1.5× concentration of Read Buffer T (MSD) was added to the wells.
The assays were read on a SECTOR Imager 6000 instrument (Meso Scale Discovery). Ratios of the signal from pSer473Akt and total Akt assays were used to correct for any variability and the percent inhibition of pSer473Akt from the total signal seen in cells treated with compound versus DMSO alone was calculated and used to determine EC50 values for each compound as shown in Tables 1 and 2 in the column labeled “A2780 pAKT473 EC50”.

For the next assay, the system named is A2780 cells. Description: Viability assay in A2780 (Cell Titer Glo). It counts as cell-based, human. The following applies: Homo sapiens. In short, it runs like this: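 EC50 values come from Cell Titer Glo luminescence after 72 hrs of compound exposure at 37° C, run in duplicate. A2780 cells were plated at 1,000 per well in DMEM with 10% FBS and dosed with 3-fold serial dilutions.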

[2] abbreviates: A2780 cells, read-out: A2780 pAKT 473 EC50.
Where [3] appears, read: A2780 cells, read-out: A2780 Cell prolif. EC50.
Setting [4] is: ATP depletion assay, read-out: PI3 K Alpha IC50.
Where [5] appears, read: 1 h, A2780 cells, one hour incubation, read-out: A2780 pAKT473 EC50.
Where [6] appears, read: A2780 cells, 72 hrs, read-out: A2780 Cell prolif. EC50.

Where two headings read alike, the source gives them in different places. A value given as a limit tells only on which side of the number the result lay.

Sequence of PI3 K Alpha (P42336 whole entry): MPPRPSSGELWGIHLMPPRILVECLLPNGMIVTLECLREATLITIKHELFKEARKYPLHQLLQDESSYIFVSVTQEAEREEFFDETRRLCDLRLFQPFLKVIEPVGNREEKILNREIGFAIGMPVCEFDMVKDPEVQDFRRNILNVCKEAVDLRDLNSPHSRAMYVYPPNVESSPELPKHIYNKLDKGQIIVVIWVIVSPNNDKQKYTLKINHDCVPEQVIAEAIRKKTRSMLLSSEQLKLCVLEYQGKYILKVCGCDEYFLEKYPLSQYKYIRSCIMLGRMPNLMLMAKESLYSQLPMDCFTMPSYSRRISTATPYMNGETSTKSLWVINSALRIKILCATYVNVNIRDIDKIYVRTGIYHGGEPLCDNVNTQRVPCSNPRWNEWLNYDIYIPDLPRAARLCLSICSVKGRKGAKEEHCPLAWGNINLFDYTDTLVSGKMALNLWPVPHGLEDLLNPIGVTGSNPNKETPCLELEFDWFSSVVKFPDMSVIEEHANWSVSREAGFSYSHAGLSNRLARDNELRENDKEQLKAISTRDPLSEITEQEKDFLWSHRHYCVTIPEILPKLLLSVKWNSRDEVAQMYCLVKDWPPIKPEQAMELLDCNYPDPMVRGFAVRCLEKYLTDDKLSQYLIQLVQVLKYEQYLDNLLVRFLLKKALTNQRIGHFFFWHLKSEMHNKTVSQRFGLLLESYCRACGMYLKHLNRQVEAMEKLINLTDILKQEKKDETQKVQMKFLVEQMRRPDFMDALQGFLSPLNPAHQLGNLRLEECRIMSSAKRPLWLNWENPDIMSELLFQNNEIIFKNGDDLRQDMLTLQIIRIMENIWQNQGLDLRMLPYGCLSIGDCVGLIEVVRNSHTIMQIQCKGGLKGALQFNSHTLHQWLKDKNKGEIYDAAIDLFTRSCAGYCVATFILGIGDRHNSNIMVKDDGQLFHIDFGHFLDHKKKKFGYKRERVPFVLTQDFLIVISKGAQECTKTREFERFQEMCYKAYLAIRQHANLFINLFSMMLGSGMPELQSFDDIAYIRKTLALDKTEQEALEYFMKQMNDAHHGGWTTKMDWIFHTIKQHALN
Sequence of PI3 K Alpha (P27986 whole entry partner): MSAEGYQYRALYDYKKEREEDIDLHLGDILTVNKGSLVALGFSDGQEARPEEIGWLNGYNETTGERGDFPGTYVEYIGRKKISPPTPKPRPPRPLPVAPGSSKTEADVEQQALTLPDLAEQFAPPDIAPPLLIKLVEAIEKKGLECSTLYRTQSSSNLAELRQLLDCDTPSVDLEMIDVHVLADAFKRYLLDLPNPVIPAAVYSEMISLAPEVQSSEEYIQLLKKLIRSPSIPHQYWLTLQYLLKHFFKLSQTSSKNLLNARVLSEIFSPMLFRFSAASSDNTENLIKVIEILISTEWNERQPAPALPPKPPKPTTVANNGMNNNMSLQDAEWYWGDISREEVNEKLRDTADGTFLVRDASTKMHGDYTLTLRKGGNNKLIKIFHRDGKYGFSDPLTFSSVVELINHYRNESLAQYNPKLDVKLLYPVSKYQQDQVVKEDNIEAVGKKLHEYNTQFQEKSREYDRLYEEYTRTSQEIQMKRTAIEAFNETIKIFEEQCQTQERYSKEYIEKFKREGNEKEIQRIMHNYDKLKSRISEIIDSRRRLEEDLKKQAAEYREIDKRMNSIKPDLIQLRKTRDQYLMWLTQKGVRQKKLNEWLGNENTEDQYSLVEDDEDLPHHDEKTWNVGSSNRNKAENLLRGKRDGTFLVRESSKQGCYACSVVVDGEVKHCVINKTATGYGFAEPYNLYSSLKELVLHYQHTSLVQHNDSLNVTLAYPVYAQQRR

The term IC50 denotes the midpoint of a concentration-inhibition curve. Broadly, the EC50 is the concentration at which the effect is half-maximal. As to `CC(=O)Nc1cn2nc(-c3cnc(N)c(-c4ccccc4C(F)(F)F)c3)ccc2n1` [Example 53, N-(6-(6-amino-5-(2-(trifluoromethyl)phenyl)pyridin-3-yl)imidazo[1,2-b]pyridazin-2-yl)acetamide], the IC50 on PI3 K Alpha (read-out: PI3K Alpha IC50) was < 1000 nM. Also, the concentration giving a half-maximal response (EC50) (in assay [1] (setting [2]); with A2780 cells (setting [3])) was < 1000 nM each time.

As to `CNC(=O)Nc1nc2ccc(-c3ccc(N)nc3)cc2s1` [Example 2-23, 1-[6-(6-Amino-pyridin-3-yl)-benzothiazol-2-yl]-3-methyl-urea], at PI3 K Alpha (setting [4]), the half-inhibitory concentration (IC50) was < 1000 nM. The concentration for a half-maximal effect (EC50) was < 1000 nM in assay [1] (setting [5]) and < 10000 nM in the assay on A2780 cells (setting [6]).

`CC(=O)Nc1nc2c(F)cc(-c3cnc(N)c(C(F)(F)F)c3)cc2s1` [Example 2-31, N-[6-(6-Amino-5-trifluoromethyl-pyridin-3-yl)-4-fluoro-benzothiazol-2-yl]-acetamide]: the concentration for half-maximal inhibition (IC50) at PI3 K Alpha (setting [4]) is < 1000 nM. Further, the EC50 in assay [1] (setting [5]) was < 1000 nM; in the assay with A2780 cells (setting [6]), < 25000 nM.

As for `CC(=O)Nc1cn2cc(-c3cnc(N)c(C(F)(F)F)c3)cc(F)c2n1` [Example 190, N-(6-(6-amino-5-(trifluoromethyl)pyridin-3-yl)-8-fluoroimidazo [1,2-a]pyridin-2-yl)acetamide], the IC50 at PI3 K Alpha (read-out: PI3K Alpha IC50) is < 1000 nM. For the same molecule, the half-maximal effective concentration (EC50) in assay [1] (setting [2]) is < 1000 nM; in the assay with A2780 cells (setting [3]) it was < 10000 nM.

With `CC(=O)Nc1cn2cc(-c3cnc(N)c(-c4ccccc4F)c3)ccc2n1` [Example 114, N-(6-(6-amino-5-(2-fluorophenyl)pyridin-3-yl)imidazo[1,2-a]pyridin-2-yl)acetamide], the IC50 at PI3 K Alpha (read-out: PI3K Alpha IC50) is < 1000 nM. In addition, the EC50 is < 1000 nM in assay [1] (setting [2]) and < 10000 nM in the assay on A2780 cells (setting [3]).

As to `CC(=O)Nc1cn2cc(-c3cnc(N)c(N4CCN(C)CC4)n3)ccc2n1` [Example 131, N-(6-(5-amino-6-(4-methylpiperazin-1-yl)pyrazin-2-yl)imidazo[1,2-a]pyridin-2-yl)acetamide], on PI3 K Alpha (read-out: PI3K Alpha IC50), the concentration for half-maximal inhibition (IC50) is < 1000 nM. The results for the concentration for a half-maximal effect (EC50) (in assay [1] (setting [2]); in the assay with A2780 cells (setting [3])) were < 1000 nM and < 10000 nM, respectively.

For `CC(=O)Nc1cn2nc(-c3cnc(N)c(OC(F)F)c3)ccc2n1` [Example 72, N-(6-(6-amino-5-(difluoromethoxy)pyridin-3-yl)imidazo[1,2-b]pyridazin-2-yl)acetamide], at PI3 K Alpha (read-out: PI3K Alpha IC50), the IC50 is < 1000 nM. Moreover, the concentration for a half-maximal effect (EC50) (in assay [1] (setting [2]); in the assay on A2780 cells (setting [3])) was < 1000 nM throughout.

As for `Nc1ncc(-c2ccc3nc(NC(=O)CO[C@H]4CCNC4)cn3n2)cc1C(F)(F)F` [Example 82, (S)-N-(6-(6-amino-5-(trifluoromethyl)pyridin-3-yl)imidazo[1,2-b]pyridazin-2-yl)-2-(pyrrolidin-3-yloxy)acetamide], the 50% inhibitory concentration (IC50) at PI3 K Alpha (read-out: PI3K Alpha IC50) was < 1000 nM. The concentration for a half-maximal effect (EC50) (in assay [1] (setting [2]); in the assay with A2780 cells (setting [3])) was < 1000 nM throughout.

On to `CC(=O)Nc1cn2cc(-c3cnc(N)c(OC4CN(C(=O)OC(C)(C)C)C4)n3)ccc2n1` [Example 67, tert-butyl 3-(6-(2-acetamido-imidazo[1,2-a]pyridin-6-yl)-3-aminopyrazin-2-yloxy)axetidine-1-carboxylate], for which the IC50 on PI3 K Alpha (read-out: PI3K Alpha IC50) is < 1000 nM. In addition, the EC50 (in assay [1] (setting [2]); in the assay on A2780 cells (setting [3])) was < 1000 nM in each case.

For `CC(=O)Nc1nc2ccc(-c3cnc(N)c(C(F)(F)F)c3)c(C)c2s1` [Example 2-27, N-[6-(6-Amino-5-trifluoromethyl-pyridin-3-yl)-7-methyl-benzothiazol-2-yl]-acetamide], at PI3 K Alpha (setting [4]), the IC50 is < 1000 nM. The 50% effective concentration (EC50) in assay [1] (setting [5]) is < 1000 nM; in the assay with A2780 cells (setting [6]), < 10000 nM.

`COc1ccc(C#Cc2c(NC(C)=O)nc3ccc(-c4cnc(N)c(C(F)(F)F)c4)cn23)cc1` [Example 117, N-(6-(6-amino-5-(trifluoromethyl)pyridin-3-yl)-3-((4-methoxyphenyl)ethynyl)imidazo[1,2-a]pyridin-2-yl)acetamide]: the IC50 at PI3 K Alpha (read-out: PI3K Alpha IC50) was < 1000 nM. In addition, the EC50 was < 1000 nM in assay [1] (setting [2]) and < 10000 nM in the assay on A2780 cells (setting [3]).

For `CNC(=O)c1ccc(-c2c(NC(C)=O)nc3ccc(-c4cnc(N)c(C(F)(F)F)c4)cn23)cc1` [Example 18, 4-[2-Acetylamino-6-(6-amino-5-trifluoromethyl-pyridin-3-yl)-imidazo[1,2-a]pyridin-3-yl]-N-methyl-benzamide], the IC50 at PI3 K Alpha (read-out: PI3K Alpha IC50) is < 1000 nM. In addition, the EC50 in assay [1] (setting [2]) was < 10000 nM; in the assay with A2780 cells (setting [3]), < 25000 nM.

As for `CC(=O)Nc1cn2cc(-c3cnc(N)c(-c4cccc(OC(F)(F)F)c4)c3)ccc2n1` [Example 92, N-(6-(6-amino-5-(3-(trifluoromethoxy)phenyl)pyridin-3-yl)imidazo[1,2-a]pyridin-2-yl)acetamide], the IC50 on PI3 K Alpha (read-out: PI3K Alpha IC50) is < 1000 nM. For the same molecule, the EC50 in assay [1] (setting [2]) was < 10000 nM; in the assay with A2780 cells (setting [3]) it was < 1000 nM.

Take `CCN(CC)CC#Cc1c(NC(C)=O)nc2ccc(-c3cnc(N)c(C(F)(F)F)c3)cn12` [Example 30, N-[6-(6-Amino-5-trifluoromethyl-pyridin-3-yl)-3-(3-diethylamino-prop-1-ynyl)-imidazo[1,2-a]pyridin-2-yl]-acetamide]: the IC50 at PI3 K Alpha (read-out: PI3K Alpha IC50) was < 1000 nM. The EC50 in assay [1] (setting [2]) is < 1000 nM; in the assay on A2780 cells (setting [3]), < 10000 nM.

Regarding `Nc1ncc(-c2ccc3nc(NC(=O)c4ccc(F)cc4)cn3c2)cc1C(F)(F)F` [Example 78, N-(6-(6-amino-5-(trifluoromethyl)pyridin-3-yl)imidazo[1,2-a]pyridin-2-yl)-4-fluorobenzamide], the IC50 at PI3 K Alpha (read-out: PI3K Alpha IC50) was < 1000 nM. The EC50 (in assay [1] (setting [2]); in the assay on A2780 cells (setting [3])) was < 1000 nM throughout.

For the molecule `Nc1ccc(-c2ccc3nc(NC(=O)OCCN4CCOCC4)sc3c2)cn1` [Example 2-24, [6-(6-Amino-pyridin-3-yl)-benzothiazol-2-yl]-carbamic acid 2-morpholin-4-yl-ethyl ester], on PI3 K Alpha (setting [4]), the IC50 was < 1000 nM. Further, the results for the EC50 (in assay [1] (setting [5]); in the assay on A2780 cells (setting [6])) were < 10000 nM and < 25000 nM, respectively.

For the molecule `CCOc1nc(-c2ccc3nc(NC(C)=O)cn3n2)cnc1N` [Example 184, N-(6-(5-amino-6-ethoxypyrazin-2-yl)imidazo[1,2-b]pyridazin-2-yl)acetamide], the IC50 on PI3 K Alpha (read-out: PI3K Alpha IC50) was < 1000 nM. Also, the EC50 was < 1000 nM in assay [1] (setting [2]) and < 10000 nM with A2780 cells (setting [3]).

Turning to `CC(=O)Nc1cn2cc(-c3cnc(N)c(/C=N/N(C)C)c3)ccc2n1` [Example 204, (E)-N-(6-(6-amino-5-((2,2-dimethylhy-drazono)methyl)pyridin-3-yl)imidazo[1,2-a]pyridin-2-yl)acetamide], the IC50 at PI3 K Alpha (read-out: PI3K Alpha IC50) was < 1000 nM. Besides, the concentration for a half-maximal effect (EC50) in assay [1] (setting [2]) was < 1000 nM; with A2780 cells (setting [3]), < 10000 nM.

As for `CC(=O)Nc1nc2ccc(-c3cnc(N)c(C(F)(F)F)c3)cn2c1C#Cc1ccccn1` [Example 241, N-(6-(6-amino-5-(trifluoromethyl)pyridin-3-yl)-3-(pyridin-2-ylethnyl)imi-dazo[1,2-a]pyridin-2-yl)acetamide], on PI3 K Alpha, the half-inhibitory concentration (IC50) was < 1000 nM. For the same molecule, the EC50 in assay [1] (A2780, read-out: A2780 pAKT 473 EC50) was < 10000 nM; with A2780 cells (A2780, read-out: A2780 Cell prolif. EC50) it was < 10000 nM.

For the molecule `CNCC(=O)Nc1cn2cc(-c3cnc(N)c(C(F)(F)F)c3)ccc2n1` [Example 80, N-(6-(6-amino-5-(trifluoromethyl)pyridin-3-yl)imidazo[1,2-a]pyridin-2-yl)-2-(methylamino) acetamide], the concentration for half-maximal inhibition (IC50) at PI3 K Alpha (read-out: PI3K Alpha IC50) is < 1000 nM. Moreover, the EC50 (in assay [1] (setting [2]); in the assay with A2780 cells (setting [3])) was < 1000 nM each time.

Consider `CC(=O)Nc1cn2cc(-c3cnc(N)c(Oc4cccnc4)n3)ccc2n1` [Example 91, N-(6-(5-amino-6-(pyridin-3-yloxy)pyrazin-2-yl)imidazo[1,2-a]pyridin-2-yl)acetamide], for which, on PI3 K Alpha (read-out: PI3K Alpha IC50), the half-inhibitory concentration (IC50) was < 1000 nM. For the same molecule, the half-maximal effective concentration (EC50) (in assay [1] (setting [2]); with A2780 cells (setting [3])) was < 1000 nM throughout.

In the case of `CNCC(=O)Nc1cn2nc(-c3cnc(N)c(C(F)(F)F)c3)ccc2n1` [Example 60, N-(6-(6-amino-5-(trifluoromethyl)pyridin-3-yl)imidazo[1,2-b]pyridazin-2-yl)-2-(methylamino) acetamide], the concentration for half-maximal inhibition (IC50) at PI3 K Alpha (read-out: PI3K Alpha IC50) was < 1000 nM. The EC50 (in assay [1] (setting [2]); in the assay on A2780 cells (setting [3])) was < 1000 nM throughout.

As for `CC(=O)Nc1cn2nc(-c3cnc(N)c(-c4ccn(C)n4)c3)ccc2n1` [Example 95, N-(6-(6-amino-5-(1-methyl-1H-pyrazol-3-yl)pyridin-3-yl)imidazo[1,2-b]pyridazin-2-yl)acetamide], at PI3 K Alpha (read-out: PI3K Alpha IC50), the IC50 was < 1000 nM. The concentration giving a half-maximal response (EC50) (in assay [1] (setting [2]); in the assay on A2780 cells (setting [3])) was < 1000 nM throughout.
